{"source": "paper PMC5218480", "about": "(PLoS ONE, 2017)", "test_system": "MV-4-11 cells", "test": "Gene expression microarray analysis (Affymetrix PrimeView) and GSEA", "type": "cell-based, human", "parameters": "RFU PODN (11730768_x_at) / Fold change /veh PODN (11730768_x_at) / RFU LINC00158 (11744669_a_at) / Fold change /veh LINC00158 (11744669_a_at) / RFU DUSP10 (11751237_a_at) / Fold change /veh DUSP10 (11751237_a_at) / RFU ID3 (11757404_x_at) / Fold change /veh ID3 (11757404_x_at) / RFU PLEKHG5 (11737974_s_at) / Fold change /veh PLEKHG5 (11737974_s_at) / RFU LRRC4B (11730491_at) / Fold change /veh LRRC4B (11730491_at) / RFU GIMAP4 (11747438_a_at) / Fold change /veh GIMAP4 (11747438_a_at) / RFU KRT8 (11758183_x_at) / Fold change /veh KRT8 (11758183_x_at) / RFU CNN1 (11734310_a_at) / Fold change /veh CNN1 (11734310_a_at) / RFU VPS37D (11726825_at) / Fold change /veh VPS37D (11726825_at) / RFU C10orf10 (11716522_x_at) / Fold change /veh C10orf10 (11716522_x_at) / RFU KIR2DL2 /// KIR2DL4 /// KIR2DL5A /// KIR2DL5B /// KIR2DS1 /// KIR2DS2 /// KIR2DS3 /// KIR2DS4 /// KIR3DL3 /// KIR3DL3 /// KIR3DS1 (11738374_at) / Fold change /veh KIR2DL2 /// KIR2DL4 /// KIR2DL5A /// KIR2DL5B /// KIR2DS1 /// KIR2DS2 /// KIR2DS3 /// KIR2DS4 /// KIR3DL3 /// KIR3DL3 /// KIR3DS1 (11738374_at) / RFU C1QL1 (11718748_at) / Fold change /veh C1QL1 (11718748_at) / RFU TMPRSS4 (11747572_a_at) / Fold change /veh TMPRSS4 (11747572_a_at) / RFU HAMP (11756126_x_at) / Fold change /veh HAMP (11756126_x_at) / RFU RNFT2 (11725882_a_at) / Fold change /veh RNFT2 (11725882_a_at) / RFU NR4A2 (11747474_a_at) / Fold change /veh NR4A2 (11747474_a_at) / RFU ABCC12 (11746883_a_at) / Fold change /veh ABCC12 (11746883_a_at) / RFU TMEM136 (11760407_x_at) / Fold change /veh TMEM136 (11760407_x_at) / RFU CLDN22 /// WWC2 (11732394_at) / Fold change /veh CLDN22 /// WWC2 (11732394_at) / RFU HLA-DPB1 (11760878_x_at) / Fold change /veh HLA-DPB1 (11760878_x_at) / RFU SPINT1 (11716480_a_at) / Fold change /veh SPINT1 (11716480_a_at) / RFU GAP43 (11754022_s_at) / Fold change /veh GAP43 (11754022_s_at) / RFU A4GNT (11735810_at) / Fold change /veh A4GNT (11735810_at) / RFU PRB3 (11715151_x_at) / Fold change /veh PRB3 (11715151_x_at) / RFU TUBB4B (11761932_at) / Fold change /veh TUBB4B (11761932_at) / RFU CAPN14 (11732068_a_at) / Fold change /veh CAPN14 (11732068_a_at) / RFU TMCC2 (11721928_a_at) / Fold change /veh TMCC2 (11721928_a_at) / RFU IRGQ (11745062_a_at) / Fold change /veh IRGQ (11745062_a_at) / RFU FAM174B (11720279_a_at) / Fold change /veh FAM174B (11720279_a_at) / RFU TMPRSS4 (11748680_a_at) / Fold change /veh TMPRSS4 (11748680_a_at) / RFU FAM212B (11763350_a_at) / Fold change /veh FAM212B (11763350_a_at) / RFU PLEKHG5 (11743358_a_at) / Fold change /veh PLEKHG5 (11743358_a_at) / RFU ZSCAN30 (11745921_a_at) / Fold change /veh ZSCAN30 (11745921_a_at) / RFU CMKLR1 (11741424_a_at) / Fold change /veh CMKLR1 (11741424_a_at) / RFU LOC101060620 /// MAPK8IP1 (11723275_at) / Fold change /veh LOC101060620 /// MAPK8IP1 (11723275_at) / RFU SPTSSB (11747773_x_at) / Fold change /veh SPTSSB (11747773_x_at) / RFU PRSS12 (11739890_at) / Fold change /veh PRSS12 (11739890_at) / RFU BIN1 (11741810_x_at) / Fold change /veh BIN1 (11741810_x_at) / RFU WNT11 (11732464_a_at) / Fold change /veh WNT11 (11732464_a_at) / RFU C10orf10 (11716521_a_at) / Fold change /veh C10orf10 (11716521_a_at) / RFU C5orf56 (11738089_at) / Fold change /veh C5orf56 (11738089_at) / RFU CYB561 (11721691_x_at) / Fold change /veh CYB561 (11721691_x_at) / RFU ANKRD19P (11752326_a_at) / Fold change /veh ANKRD19P (11752326_a_at) / RFU OR2T12 /// OR2T33 /// OR2T8 (11738714_s_at) / Fold change /veh OR2T12 /// OR2T33 /// OR2T8 (11738714_s_at) / RFU VCAN (11748164_a_at) / Fold change /veh VCAN (11748164_a_at) / RFU JSRP1 (11732532_at) / Fold change /veh JSRP1 (11732532_at) / RFU KRTAP10-11 (11738290_x_at) / Fold change /veh KRTAP10-11 (11738290_x_at) / RFU MYO3A (11730013_a_at) / Fold change /veh MYO3A (11730013_a_at) / RFU EBF3 (11725865_a_at) / Fold change /veh EBF3 (11725865_a_at) / RFU CAMK2N1 (11719241_x_at) / Fold change /veh CAMK2N1 (11719241_x_at) / RFU C5orf56 (11738088_a_at) / Fold change /veh C5orf56 (11738088_a_at) / RFU OLFML3 (11715873_a_at) / Fold change /veh OLFML3 (11715873_a_at) / RFU LOC100653217 /// NTM (11731650_a_at) / Fold change /veh LOC100653217 /// NTM (11731650_a_at) / RFU MAPK11 (11762145_a_at) / Fold change /veh MAPK11 (11762145_a_at) / RFU FIZ1 (11724087_x_at) / Fold change /veh FIZ1 (11724087_x_at) / RFU OASL (11726364_x_at) / Fold change /veh OASL (11726364_x_at) / RFU SOX15 (11748057_x_at) / Fold change /veh SOX15 (11748057_x_at) / RFU CD79A (11719716_a_at) / Fold change /veh CD79A (11719716_a_at) / RFU HIST1H1D (11736915_at) / Fold change /veh HIST1H1D (11736915_at) / RFU CASKIN2 (11723855_a_at) / Fold change /veh CASKIN2 (11723855_a_at) / RFU LOC730098 (11760151_x_at) / Fold change /veh LOC730098 (11760151_x_at) / RFU OR4N2 (11742367_at) / Fold change /veh OR4N2 (11742367_at) / RFU PRRT2 (11749266_a_at) / Fold change /veh PRRT2 (11749266_a_at) / RFU SNX32 (11753110_a_at) / Fold change /veh SNX32 (11753110_a_at) / RFU CDHR5 (11726645_a_at) / Fold change /veh CDHR5 (11726645_a_at) / RFU RCAN1 (11760418_a_at) / Fold change /veh RCAN1 (11760418_a_at) / RFU FAM167A (11723789_a_at) / Fold change /veh FAM167A (11723789_a_at) / RFU FAM26E (11764081_at) / Fold change /veh FAM26E (11764081_at) / RFU ISYNA1 (11749810_s_at) / Fold change /veh ISYNA1 (11749810_s_at) / RFU ACY1 (11761880_at) / Fold change /veh ACY1 (11761880_at) / RFU 11764098_at / Fold change /veh 11764098_at / RFU SAMD14 (11745864_x_at) / Fold change /veh SAMD14 (11745864_x_at) / RFU NPB (11741838_a_at) / Fold change /veh NPB (11741838_a_at) / RFU TMPRSS6 (11731388_a_at) / Fold change /veh TMPRSS6 (11731388_a_at) / RFU KRTAP10-2 (11738614_at) / Fold change /veh KRTAP10-2 (11738614_at) / RFU ARHGAP8 /// PRR5-ARHGAP8 (11727945_x_at) / Fold change /veh ARHGAP8 /// PRR5-ARHGAP8 (11727945_x_at) / RFU KRTAP5-7 /// NADSYN1 (11734609_at) / Fold change /veh KRTAP5-7 /// NADSYN1 (11734609_at) / RFU RASL12 (11751679_a_at) / Fold change /veh RASL12 (11751679_a_at) / RFU CDKN2B (11736163_a_at) / Fold change /veh CDKN2B (11736163_a_at) / RFU PRF1 (11729649_at) / Fold change /veh PRF1 (11729649_at) / RFU, ZNF638 /// ZNF638-IT1 / Fold change vs veh, ZNF638 /// ZNF638-IT1 / RFU, PANK3 / Fold change vs veh, PANK3 / RFU, SH3YL1 / Fold change vs veh, SH3YL1 / RFU, ZEB2 / Fold change vs veh, ZEB2 / RFU, NRIP1 / Fold change vs veh, NRIP1 / RFU, PTTG1IP / Fold change vs veh, PTTG1IP / RFU, CAPN2 / Fold change vs veh, CAPN2 / RFU, MED14 / Fold change vs veh, MED14 / RFU, SNORA58 / Fold change vs veh, SNORA58 / RFU, C1orf63 / Fold change vs veh, C1orf63 / RFU, LRRFIP1 / Fold change vs veh, LRRFIP1 / RFU, NDUFAF7 / Fold change vs veh, NDUFAF7 / RFU, SLC12A2 / Fold change vs veh, SLC12A2 / RFU, IBTK / Fold change vs veh, IBTK / RFU, ESF1 / Fold change vs veh, ESF1 / Fold change vs veh, TMEM50B / RFU, TAOK1 / Fold change vs veh, TAOK1 / RFU, ACBD3 / Fold change vs veh, ACBD3 / RFU, TMA16 / Fold change vs veh, TMA16 / RFU, RWDD3 / Fold change vs veh, RWDD3 / RFU, BCAT1 / Fold change vs veh, BCAT1 / RFU, EDEM3 / Fold change vs veh, EDEM3 / RFU, TMEM33 / Fold change vs veh, TMEM33 / RFU, WDR75 / Fold change vs veh, WDR75 / RFU, AHCTF1 / Fold change vs veh, AHCTF1 / RFU, TFRC / Fold change vs veh, TFRC / RFU, ZDHHC17 / Fold change vs veh, ZDHHC17 / RFU, NOM1 / Fold change vs veh, NOM1 / RFU, ARL8B / Fold change vs veh, ARL8B / RFU, ZBTB11 / Fold change vs veh, ZBTB11 / RFU, TAMM41 / Fold change vs veh, TAMM41 / RFU, KIAA1704 /// LOC100996395 / Fold change vs veh, KIAA1704 /// LOC100996395 / RFU, ING1 / Fold change vs veh, ING1 / RFU, TRMT61B / Fold change vs veh, TRMT61B / RFU, FUBP3 / Fold change vs veh, FUBP3 / RFU, TP53 / Fold change vs veh, TP53 / RFU, TNKS2 / Fold change vs veh, TNKS2 / RFU, ZFP14 / Fold change vs veh, ZFP14 / RFU, ACTR2 / Fold change vs veh, ACTR2 / RFU, PPP3R1 / Fold change vs veh, PPP3R1 / RFU, PIK3R1 / Fold change vs veh, PIK3R1 / RFU, HNRNPA1 / Fold change vs veh, HNRNPA1 / RFU, RNF170 / Fold change vs veh, RNF170 / RFU, ZNF28 / Fold change vs veh, ZNF28 / RFU, RNGTT / Fold change vs veh, RNGTT / RFU, OGT / Fold change vs veh, OGT / RFU, BRD1 / Fold change vs veh, BRD1 / RFU, MARS / Fold change vs veh, MARS / RFU, ZNF655 / Fold change vs veh, ZNF655 / RFU, FAHD1 / Fold change vs veh, FAHD1 / RFU, BDP1 / Fold change vs veh, BDP1 / RFU, LRRCC1 / Fold change vs veh, LRRCC1 / RFU, ARID1A / Fold change vs veh, ARID1A / RFU, ZNF146 / Fold change vs veh, ZNF146 / RFU, ZNF330 / Fold change vs veh, ZNF330 / RFU, GPN3 / Fold change vs veh, GPN3 / RFU, C9orf123 / Fold change vs veh, C9orf123 / RFU, N4BP2L2 / Fold change vs veh, N4BP2L2 / RFU, ARFIP1 / Fold change vs veh, ARFIP1 / RFU, FAM179B / Fold change vs veh, FAM179B / RFU, BCL10 / Fold change vs veh, BCL10 / RFU, UHRF1BP1L / Fold change vs veh, UHRF1BP1L / RFU, BET1 / Fold change vs veh, BET1 / RFU, CNOT2 / Fold change vs veh, CNOT2 / RFU, ZNF268 / Fold change vs veh, ZNF268 / Fold change vs veh, ZNF507 / RFU, DGCR2 / Fold change vs veh, DGCR2 / RFU, WDSUB1 / Fold change vs veh, WDSUB1 / Fold change vs veh, HSP90B1 /// MIR3652 / RFU, ADSS / Fold change vs veh, ADSS / RFU, GK / Fold change vs veh, GK / RFU, ZNF148 / Fold change vs veh, ZNF148 / RFU, TAF9 / Fold change vs veh, TAF9 / RFU, SLC1A5 / Fold change vs veh, SLC1A5 / RFU, SLMO2 / Fold change vs veh, SLMO2 / RFU, ABCC4 / Fold change vs veh, ABCC4 / RFU, LOC101060439 /// RAP1B / Fold change vs veh, LOC101060439 /// RAP1B / RFU, RFX7 / Fold change vs veh, RFX7 / RFU, GTPBP10 / Fold change vs veh, GTPBP10 / RFU, CNEP1R1 / Fold change vs veh, CNEP1R1 / RFU, BIVM-ERCC5 /// ERCC5 / Fold change vs veh, BIVM-ERCC5 /// ERCC5 / RFU, ILF3 / Fold change vs veh, ILF3 / RFU 11762660_at / Fold change /veh 11762660_at / RFU VCAN (11757783_s_at) / Fold change /veh VCAN (11757783_s_at) / RFU DDX43 (11728927_at) / Fold change /veh DDX43 (11728927_at) / RFU KRT8 (11758188_x_at) / Fold change /veh KRT8 (11758188_x_at) / RFU NKD1 (11759106_at) / Fold change /veh NKD1 (11759106_at) / RFU SRD5A1 (11742802_a_at) / Fold change /veh SRD5A1 (11742802_a_at) / RFU TPSAB1 /// TPSB2 (11721975_s_at) / Fold change /veh TPSAB1 /// TPSB2 (11721975_s_at) / RFU GSTM3 (11746129_a_at) / Fold change /veh GSTM3 (11746129_a_at) / RFU IL23R (11737362_x_at) / Fold change /veh IL23R (11737362_x_at) / RFU TMEM51 (11727254_a_at) / Fold change /veh TMEM51 (11727254_a_at) / RFU PIWIL2 (11732686_x_at) / Fold change /veh PIWIL2 (11732686_x_at) / RFU ORM1 (11744905_x_at) / Fold change /veh ORM1 (11744905_x_at) / RFU CCDC152 (11743942_at) / Fold change /veh CCDC152 (11743942_at) / RFU ECM1 (11717891_a_at) / Fold change /veh ECM1 (11717891_a_at) / RFU IL23R (11748794_a_at) / Fold change /veh IL23R (11748794_a_at) / RFU TNFAIP8L3 (11732012_x_at) / Fold change /veh TNFAIP8L3 (11732012_x_at) / RFU MBOAT4 (11741988_at) / Fold change /veh MBOAT4 (11741988_at) / RFU 11764193_at / Fold change /veh 11764193_at / RFU TMEM53 (11763286_at) / Fold change /veh TMEM53 (11763286_at) / RFU MAGEB2 (11727129_at) / Fold change /veh MAGEB2 (11727129_at) / RFU TMEM200A (11744735_a_at) / Fold change /veh TMEM200A (11744735_a_at) / RFU CCDC152 (11751479_a_at) / Fold change /veh CCDC152 (11751479_a_at) / RFU FAM211A (11726209_a_at) / Fold change /veh FAM211A (11726209_a_at) / RFU RGS16 (11746705_a_at) / Fold change /veh RGS16 (11746705_a_at) / RFU VCAN (11755009_s_at) / Fold change /veh VCAN (11755009_s_at) / RFU RHOB (11743442_s_at) / Fold change /veh RHOB (11743442_s_at) / RFU RGS16 (11720943_a_at) / Fold change /veh RGS16 (11720943_a_at) / RFU RGS16 (11720944_at) / Fold change /veh RGS16 (11720944_at) / RFU, VPS4B / Fold change vs veh, VPS4B / RFU, CREB1 / Fold change vs veh, CREB1 / RFU, DNAJC13 / Fold change vs veh, DNAJC13 / RFU, GNAQ / Fold change vs veh, GNAQ / RFU, CDK5R1 / Fold change vs veh, CDK5R1 / RFU, ZRANB3 / Fold change vs veh, ZRANB3 / RFU, CUL4A / Fold change vs veh, CUL4A / RFU, CCNY / Fold change vs veh, CCNY / RFU, UFL1 / Fold change vs veh, UFL1 / RFU, COG3 / Fold change vs veh, COG3 / RFU, DIAPH2 / Fold change vs veh, DIAPH2 / RFU, SKA2 / Fold change vs veh, SKA2 / RFU, AFF3 / Fold change vs veh, AFF3 / RFU, LMF1 / Fold change vs veh, LMF1 / RFU, IPO11 / Fold change vs veh, IPO11 / RFU, DFFB / Fold change vs veh, DFFB / RFU, FOXP1 / Fold change vs veh, FOXP1 / RFU, CARD8 / Fold change vs veh, CARD8 / RFU, STRN3 / Fold change vs veh, STRN3 / RFU, ADK / Fold change vs veh, ADK / RFU, RASSF2 / Fold change vs veh, RASSF2 / RFU, WIPF1 / Fold change vs veh, WIPF1 / RFU, LARP1B / Fold change vs veh, LARP1B / RFU, RASA1 / Fold change vs veh, RASA1 / RFU, RB1 / Fold change vs veh, RB1 / RFU, PPFIA1 / Fold change vs veh, PPFIA1 / RFU, MAT2A / Fold change vs veh, MAT2A / RFU, CCT5 / Fold change vs veh, CCT5 / RFU, WDR92 / Fold change vs veh, WDR92 / RFU, CUX1 / Fold change vs veh, CUX1 / RFU, TTC7A / Fold change vs veh, TTC7A / RFU, TMEM135 / Fold change vs veh, TMEM135 / RFU, DEPTOR / Fold change vs veh, DEPTOR / RFU, CPM / Fold change vs veh, CPM / RFU, DNAJB6 / Fold change vs veh, DNAJB6 / RFU, CACNA2D3 / Fold change vs veh, CACNA2D3 / RFU, DTX4 / Fold change vs veh, DTX4 / RFU, TFCP2 / Fold change vs veh, TFCP2 / RFU, GMCL1 /// GMCL1P1 / Fold change vs veh, GMCL1 /// GMCL1P1 / RFU, AEBP2 / Fold change vs veh, AEBP2 / RFU, SNHG1 /// SNORD22 /// SNORD25 /// SNORD26 /// SNORD27 /// SNORD28 /// SNORD29 /// SNORD31 / Fold change vs veh, SNHG1 /// SNORD22 /// SNORD25 /// SNORD26 /// SNORD27 /// SNORD28 /// SNORD29 /// SNORD31 / Fold change (Aza/veh), C12orf56 (ProbeSet 11735607_a_at) / Fold change (ACY-1035/veh), C12orf56 (ProbeSet 11735607_a_at) / Fold change (Aza/veh), FGFR1OP (ProbeSet 11751329_s_at) / Fold change (ACY-1035/veh), FGFR1OP (ProbeSet 11751329_s_at) / Fold change (Aza/veh), VPS36 (ProbeSet 11739960_a_at) / Fold change (ACY-1035/veh), VPS36 (ProbeSet 11739960_a_at) / RFU SYPL1 (11715823_x_at) / Fold change /veh SYPL1 (11715823_x_at) / RFU IGFBP7 (11715501_s_at) / Fold change /veh IGFBP7 (11715501_s_at) / RFU REEP3 (11722064_at) / Fold change /veh REEP3 (11722064_at) / RFU IGLL1 (11728026_x_at) / Fold change /veh IGLL1 (11728026_x_at): dose or concentration left out as unconfirmed", "settings": "ProbeSet 11743362_s_at; LIST B", "data": [{"compound": "Nc1ccc(-c2cccs2)cc1NC(=O)c1ccc2c(c1)cc(C1CC1)n2CCN1CCOCC1", "note": "[ACY-1035]", "values": [{"measurement": "Fold change vs veh, ADSS", "result": 0.95}]}]}
